Like-named read-outs stand apart in the source and are kept apart here.

This test deals with T1, human Keap1 kelch domain (amino acids Ala321-Thr609) (Homo sapiens, UniProt Q14145).
T1 construct: human Keap1 kelch domain (amino acids Ala321-Thr609)
In words: Keap1-Nrf2 peptide binding assay (fluorescence polarisation). The following applies: binding of Keap1 kelch domain (20 nM) to fluorescently labeled Nrf2 peptide (50 nM). On the procedure:
A fluorescence polarisation assay was used to measure binding of the human Keap1 kelch domain (amino acids Ala321-Thr609) to a fluorescently labeled peptide containing a Keap1 binding site of human Nrf2 (Alexa633-AFFAQLQLDEETGEFL; JPT Technologies, Berlin, Germany). Two microliters of test compound in reaction buffer (phosphate-buffered saline, 2 mM DL-dithiothreitol, 0.015 % (v/v) Brij-35) containing 6 % (v/v) DMSO were mixed with two microliters of the Keap1 kelch domain in reaction buffer in a black 384-well small volume microtiter plate and incubated at ambient temperature for 15 minutes. Thereafter, two microliters were added of the fluorescently labeled Nrf2 peptide in reaction buffer, and the mixture was incubated for a further 30 minutes at ambient temperature. Final concentrations of the Keap1 kelch domain and the fluorescently labeled Nrf2 peptide were 20 nM and 50 nM, respectively.
Fluorescence polarization (FP) was measured at excitation and emission wavelengths of 635 nm and 660 nm, respectively. Positive controls for binding (two microliters of reaction buffer containing 6 % (v/v) DMSO instead of test compound in the same buffer) and negative controls (as positive controls, but without Keap1 kelch domain) were included on each microtiter plate. Data were expressed as percent-inhibition values: percentinhibition = 100⋅(1-(|FPcompound-FPnegative controle|)/(|FPpositive controle-FPnegative controle|)) [formula]
IC50 values were determined by testing different compound concentrations and fitting the resulting percent-inhibition values to the following equation using XLFit4: percentinhibition = A + (B-A)/(1 + (((IC50)/([Compound])))^D) [formula]
Parameter A was set to zero, pre-fit values for parameters B and D were set to 100 and 1, respectively.

T1 sequence (Q14145 321-609): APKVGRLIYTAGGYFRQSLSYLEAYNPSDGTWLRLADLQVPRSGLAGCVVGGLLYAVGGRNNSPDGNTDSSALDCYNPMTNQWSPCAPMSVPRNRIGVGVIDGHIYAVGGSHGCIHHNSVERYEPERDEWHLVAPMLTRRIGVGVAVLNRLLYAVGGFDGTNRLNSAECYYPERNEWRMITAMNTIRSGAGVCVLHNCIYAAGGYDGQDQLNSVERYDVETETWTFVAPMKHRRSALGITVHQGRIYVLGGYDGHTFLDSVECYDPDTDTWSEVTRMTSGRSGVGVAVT

Consider `Cc1ccc(C#N)c(S(=O)(=O)Nc2ccc(-c3cccc(C(=O)O)c3)c3ccccc23)c1` [Example 53, 3-[4-[(2-cyano-5-methylphenyl)sulfonylamino]-1-naphthyl]benzoic acid], for which the half-maximal inhibitory concentration (IC50) stood at 6700 nM.

Take `O=C(O)c1cccc(-c2ccc(NS(=O)(=O)c3cc(Cl)ccc3Cl)c3ccccc23)c1` [Example 54, 3-[4-[(2,5-dichlorophenyl)sulfonylamino]-1-naphthyl]benzoic acid]: the IC50 came to 3700 nM.

With `O=C(O)c1ccc(F)c(-c2ccc(NS(=O)(=O)c3cc(Cl)sc3Cl)c3ccccc23)c1` [Example 85, 3-[4-[(2,5-dichloro-3-thienyl)sulfonylamino]-1-naphthyl]-4-fluoro-benzoic acid], for the setting “read-out: IC50”, the concentration for half-maximal inhibition (IC50) was 900 nM.

On to `N#Cc1ccc(S(=O)(=O)Nc2ccc(-c3cccc(C(=O)O)c3)c3ccccc23)c(Cl)c1` [Example 33, 3-[4-[(2-chloro-4-cyanophenyl)sulfonylamino]-1-naphthyl]benzoic acid], for which the 50% inhibitory concentration (IC50) was determined as 5200 nM.

`CC(=O)N1CCCc2cc(S(=O)(=O)Nc3ccc(-c4cccc(C(=O)O)c4)c4ccccc34)ccc21` [Example 30, 3-[4-[(1-acetyl-3,4-dihydro-2H-quinolin-6-yl)sulfonylamino]-1-naphthyl]benzoic acid]: where the note is “read-out: IC50”, the half-maximal inhibitory concentration (IC50) came to 4300 nM.

Regarding `CC(=O)N1c2ccc(S(=O)(=O)Nc3ccc(-c4cccc(C(=O)O)c4)c4ccccc34)cc2CC1C` (stereo not shown) [Example 27, 3-[4-[(1-acetyl-2-methyl-indolin-5-yl)sulfonylamino]-1-naphthyl]benzoic acid], the IC50 (read-out: IC50) was 3600 nM.

As to `O=C(O)c1cccc(-c2ccc(NS(=O)(=O)c3ccc(OC(F)(F)F)c(Cl)c3)c3ccccc23)c1` [Example 38, 3-[4-[[3-chloro-4-(trifluoromethoxy)phenyl]sulfonylamino]-1-naphthyl]benzoic acid], the IC50 came out at 6800 nM.

As to `Cc1c(S(=O)(=O)Nc2ccc(-c3cccc(C(=O)O)c3)c3ccccc23)sc2ccc(Cl)cc12` [Example 17, 3-[4-[(5-chloro-3-methyl-benzothiophen-2-yl)sulfonylamino]-1-naphthyl]benzoic acid], under “read-out: IC50”, the IC50 was found to be 1600 nM.

As for `O=C(O)c1cccc(-c2ccc(NS(=O)(=O)c3cccc(Cl)c3Cl)c3ccccc23)c1` [Example 34, 3-[4-[(2,3-dichlorophenyl)sulfonylamino]-1-naphthyl]benzoic acid], the IC50 was determined as 1500 nM.

As for `Cc1c(S(=O)(=O)Nc2ccc(-c3cc(C(=O)O)ccc3F)c3ccccc23)cnn1C1CCCC1` [Example 90, 3-[4-[(1-cyclopentyl-5-methyl-pyrazol-4-yl)sulfonylamino]-1-naphthyl]-4-fluorobenzoic acid], where the note is “read-out: IC50”, the half-inhibitory concentration (IC50) stood at 1200 nM.

Regarding `Cn1ccc2c(S(=O)(=O)Nc3ccc(-c4cc(C(=O)O)ccc4F)c4ncccc34)cccc21` [Example 97, 4-fluoro-3-[5-[(1-methylindol-4-yl)sulfonylamino]-8-quinolyl]benzoic acid], the half-maximal inhibitory concentration (IC50) (read-out: IC50) stood at 5500 nM.

Turning to `O=C(O)c1cccc(-c2ccc(NS(=O)(=O)c3ccc4c(c3)OCCO4)c3ccccc23)c1` [Example 55, 3-[4-(2,3-dihydro-1,4-benzodioxin-6-ylsulfonylamino)-1-naphthyl]benzoic acid], where the note is “read-out: IC50”, the half-inhibitory concentration (IC50) came out at 4300 nM.

In the case of `Cc1nn(C)c(Cl)c1S(=O)(=O)Nc1ccc(-c2cccc(C(=O)O)c2)c2ccccc12` [Example 12, 3-[4-[(5-chloro-1,3-dimethyl-pyrazol-4-yl)sulfonylamino]-1-naphthyl]benzoic acid], the IC50 (read-out: IC50) stood at 400 nM.

As for `O=C(O)c1cccc(-c2ccc(NS(=O)(=O)c3ccc(N4CCOCC4)nc3)c3ccccc23)c1` [Example 36, 3-[4-[(6-morpholino-3-pyridyl)sulfonylamino]-1-naphthyl]benzoic acid], where the note is “read-out: IC50”, the half-maximal inhibitory concentration (IC50) worked out at 4200 nM.

As to `Cc1cc(S(=O)(=O)Nc2ccc(-c3cc(C(=O)O)ccc3F)c3ccccc23)c(Cl)cc1Cl` [Example 88, 3-[4-[(2,4-dichloro-5-methylphenyl)sulfonylamino]-1-naphthyl]-4-fluorobenzoic acid], the IC50 (read-out: IC50) is 1300 nM.

As to `Cc1c(S(=O)(=O)Nc2ccc(-c3cc(C(=O)O)ccc3F)c3ccccc23)cnn1CC(C)C` [Example 84, 4-fluoro-3-[4-[(1-isobutyl-5-methyl-pyrazol-4-yl)sulfonylamino]-1-naphthyl]benzoic acid], the half-maximal inhibitory concentration (IC50) (read-out: IC50) came out at 1700 nM.

`Cc1c(Cl)cccc1S(=O)(=O)Nc1ccc(-c2cccc(C(=O)O)c2)c2ccccc12` [Example 13, 3-[4-[(3-chloro-2-methylphenyl)sulfonylamino]-1-naphthyl]benzoic acid] returned a half-maximal inhibitory concentration (IC50) of 1100 nM.

In the case of `Cc1cc(C)c(C)c(S(=O)(=O)Nc2ccc(-c3cccc(C(=O)O)c3F)c3ccccc23)c1C` [Example 4, 2-fluoro-3-[4-[(2,3,5,6-tetramethylphenyl)sulfonylamino]-1-naphthyl]benzoic acid], the IC50 (read-out: IC50) came to 200 nM.

As to `Cc1cc(C)c(C)c(S(=O)(=O)Nc2ccc(-c3cccc(C(=O)O)c3)c3ccccc23)c1C` [Example 1, 3-[4-[(2,3,5,6-tetramethyl-phenyl)-sulfonylamino]-1-naphthyl]benzoic acid], the half-inhibitory concentration (IC50) (read-out: IC50) worked out at 200 nM.

Turning to `O=C(O)c1cccc(-c2ccc(NS(=O)(=O)c3c(Cl)cc(C(F)(F)F)cc3Cl)c3ccccc23)c1` [Example 52, 3-[4-[[2,6-dichloro-4-(trifluoromethyl)phenyl]sulfonylamino]-1-naphthyl]benzoic acid], the IC50 worked out at 1400 nM.

For the molecule `CCCCCCCCc1cc(-c2cccc(C(=O)O)c2)c2ccccc2c1NS(=O)(=O)c1c(C)c(C)cc(C)c1C` [Example 59, 3-[3-octyl-4-[(2,3,5,6-tetramethylphenyl)sulfonylamino]-1-naphthyl]benzoic acid], the IC50 (read-out: IC50) turned out to be 46000 nM.

On to `Cc1nn(-c2ccccc2)c(C)c1S(=O)(=O)Nc1ccc(-c2cc(C(=O)O)ccc2F)c2ccccc12` [Example 86, 3-[4-[(3,5-dimethyl-1-phenyl-pyrazol-4-yl)sulfonylamino]-1-naphthyl]-4-fluorobenzoic acid], for which the IC50 (read-out: IC50) worked out at 1500 nM.

Regarding `O=C(O)c1cccc(-c2ccc(NS(=O)(=O)c3ccc(Cl)cc3Cl)c3ccccc23)c1` [Example 15, 3-[4-[(2,4-dichlorophenyl)sulfonylamino]-1-naphthyl]benzoic acid], the concentration for half-maximal inhibition (IC50) was 1000 nM.

Take `O=C(O)c1cccc(-c2ccc(NS(=O)(=O)c3cc(Cl)cc(Cl)c3)c3ccccc23)c1` [Example 48, 3-[4-[(3,5-dichlorophenyl)sulfonylamino]-1-naphthyl]benzoic acid]: the IC50 came out at 2300 nM.

Turning to `CC(=O)Nc1nc(C)c(S(=O)(=O)Nc2ccc(-c3cccc(C(=O)O)c3)c3ccccc23)s1` [Example 11, 3-[4-[(2-acetamido-4-methyl-thiazol-5-yl)sulfonylamino]-1-naphthyl]benzoic acid], the concentration for half-maximal inhibition (IC50) (read-out: IC50) is 2800 nM.

`Cc1cc(C)c(C)c(S(=O)(=O)Nc2ccc(-c3cc(C(=O)O)ccc3F)c3ccccc23)c1C` [Example 5, 4-fluoro-3-[4-[(2,3,5,6-tetramethylphenyl)sulfonylamino]-1-naphthyl]benzoic acid]: the IC50 (read-out: IC50) was 90 nM.

In turn, `Cc1c(Cl)cc(F)cc1S(=O)(=O)Nc1ccc(-c2cccc(C(=O)O)c2)c2ccccc12` [Example 46, 3-[4-[(3-chloro-5-fluoro-2-methylphenyl)sulfonylamino]-1-naphthyl]benzoic acid] came in with an IC50 of 2100 nM.

As to `CCCn1ncc(S(=O)(=O)Nc2ccc(-c3cc(C(=O)O)ccc3F)c3ccccc23)c1C` [Example 72, 4-fluoro-3-[4-[(5-methyl-1-propyl-pyrazol-4-yl)sulfonylamino]-1-naphthyl]benzoic acid], where the note is “read-out: IC50”, the 50% inhibitory concentration (IC50) was found to be 1400 nM.

As a reminder, the IC50 is the concentration that inhibits the measured activity by half.

These data come from EP2998294A1, “Naphthyl sulfonamide phenyl derivatives as KEAP-1 modulators for the treatment of diabetes, obesity, dyslipidemia and related disorders” (SANOFI, priority 2014, dated 2016).
